Experimental data taken from US8637508B2, “Heterocyclic derivatives and their use in the treatment of neurological disorders” (Novartis AG, priority 2011, dated 2014).
Like-named read-outs stand apart in the source and are kept apart here.

Columns and labels:
human BACE-2 = human BACE-2 (Homo sapiens (Human), UniProt Q9Y5Z0); assay: Test 2: Inhibition of human BACE-2; type: biochemical
From the text: Test 2: Inhibition of Human BACE-2

human BACE-1 = human BACE-1 (Homo sapiens (Human), UniProt P56817); assay: Test 1: Inhibition of human BACE-1
human BACE-1, sequence (P56817 46-457): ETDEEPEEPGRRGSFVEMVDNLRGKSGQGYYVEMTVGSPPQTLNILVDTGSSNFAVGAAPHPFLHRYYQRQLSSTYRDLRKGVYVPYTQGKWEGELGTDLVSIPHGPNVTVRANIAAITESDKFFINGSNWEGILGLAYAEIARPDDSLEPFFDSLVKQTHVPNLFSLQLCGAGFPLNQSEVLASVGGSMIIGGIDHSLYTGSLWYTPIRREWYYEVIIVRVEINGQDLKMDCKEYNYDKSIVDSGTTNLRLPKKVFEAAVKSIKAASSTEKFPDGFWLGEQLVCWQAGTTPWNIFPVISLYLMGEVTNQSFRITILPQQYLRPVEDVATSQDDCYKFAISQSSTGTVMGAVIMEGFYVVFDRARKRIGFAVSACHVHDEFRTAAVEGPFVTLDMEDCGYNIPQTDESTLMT

[1] = mean IC50, recombinant BACE-2, acetate buffer pH 4.5, fluorescence-quenched peptide substrate, read-out: BACE-2 IC50
[2] = read-out: BACE-1 IC50, mean IC50, recombinant BACE-1, acetate buffer pH 4.5, fluorescence-quenched peptide substrate

human BACE-2, sequence (Q9Y5Z0 63-473): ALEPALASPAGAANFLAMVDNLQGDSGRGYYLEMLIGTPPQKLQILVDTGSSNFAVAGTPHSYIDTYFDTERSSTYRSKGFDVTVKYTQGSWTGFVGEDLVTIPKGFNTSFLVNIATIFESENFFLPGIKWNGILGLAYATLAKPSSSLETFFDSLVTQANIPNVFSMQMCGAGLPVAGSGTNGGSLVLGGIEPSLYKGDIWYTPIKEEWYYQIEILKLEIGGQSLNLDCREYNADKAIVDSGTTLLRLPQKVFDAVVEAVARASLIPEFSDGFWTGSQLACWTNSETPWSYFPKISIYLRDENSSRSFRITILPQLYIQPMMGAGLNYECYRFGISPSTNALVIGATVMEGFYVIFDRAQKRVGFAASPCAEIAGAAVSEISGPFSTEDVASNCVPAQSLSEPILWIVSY

SMILES	IC50 (human BACE-2; [1]) [nM]	IC50 (human BACE-1; [2]) [nM]	IC50 (human BACE-2) [nM]	IC50 (human BACE-1) [nM]
C[C@@]1(c2cc(NC(=O)c3ncc(C#N)cc3Cl)ncc2F)CO[C@@](C)(C(F)(F)F)C(N)=N1 [Example 35, 3-Chloro-5-cyano-pyridine-2-carboxylic acid [4-((3R,6R)-5-amino-3,6-dimethyl-6-trifluoromethyl-3,6-dihydro-2H-[1,4]oxazin-3-yl)-5-fluoro-pyridin-2-yl]-amide]	120	150		
Cc1cc(C#N)cnc1C(=O)Nc1cc([C@]2(C)COC(CF)(CF)C(N)=N2)c(F)cn1 [Example 37, 5-Cyano-3-methyl-pyridine-2-carboxylic acid [4-((R)-5-amino-6,6-bis-fluoromethyl-3-methyl-3,6-dihydro-2H-[1,4]oxazin-3-yl)-5-fluoro-pyridin-2-yl]-amide]	430	380		
COCCn1ccc2nc(C(=O)Nc3ccc(F)c([C@]4(C)CO[C@@](C)(C(F)(F)F)C(N)=N4)n3)c(N)nc21 [Example 43, 3-Amino-5-(2-methoxy-ethyl)-5H-pyrrolo[2,3-b]pyrazine-2-carboxylic acid [6-((3R,6R)-5-amino-3,6-dimethyl-6-trifluoromethyl-3,6-dihydro-2H-[1,4]oxazin-3-yl)-5-fluoro-pyridin-2-yl]amide]		1200	> 10000	
C[C@@]1(c2nc(NC(=O)c3nc4ccn(CC(F)F)c4nc3N)ccc2F)CO[C@@](C)(C(F)(F)F)C(N)=N1 [Example 45, 3-Amino-5-(2,2-difluoro-ethyl)-5H-pyrrolo[2,3-b]pyrazine-2-carboxylic acid [6-((3R,6R)-5-amino-3,6-dimethyl-6-trifluoromethyl-3,6-dihydro-2H-[1,4]oxazin-3-yl)-5-fluoro-pyridin-2-yl]amide]			> 10000	> 10000
C[C@@]1(c2nc(NC(=O)c3nc4ccn(CC(F)F)c4cc3Cl)ccc2F)CO[C@@](C)(C(F)(F)F)C(N)=N1 [Example 47, 6-Chloro-1-(2,2-difluoro-ethyl)-1H-pyrrolo[3,2-b]pyridine-5-carboxylic acid [6-((3R,6R)-5-amino-3,6-dimethyl-6-trifluoromethyl-3,6-dihydro-2H-[1,4]oxazin-3-yl)-5-fluoro-pyridin-2-yl]-amide]	5400			> 10000
COCCn1ccc2nc(C(=O)Nc3ccc(F)c([C@]4(C)CO[C@@](C)(C(F)(F)F)C(N)=N4)n3)c(Cl)cc21 [Example 48, 6-Chloro-1-(2-methoxy-ethyl)-1H-pyrrolo[3,2-b]pyridine-5-carboxylic acid [6-((3R,6R)-5-amino-3,6-dimethyl-6-trifluoromethyl-3,6-dihydro-2H-[1,4]oxazin-3-yl)-5-fluoro-pyridin-2-yl]-amide]		7300	> 10000	

Further lines, with some results ahead:

IC50 (human BACE-2; [1]) [nM]	IC50 (human BACE-1; [2]) [nM]	SMILES	IC50 (human BACE-2) [nM]	IC50 (human BACE-1) [nM]
330	820	Cc1cnc(C(=O)Nc2ccc(F)c([C@]3(C)CO[C@@](C)(C(F)(F)F)C(N)=N3)n2)cn1 [Example 33, 5-Methyl-pyrazine-2-carboxylic acid [6-((3R,6R)-5-amino-3,6-dimethyl-6-trifluoromethyl-3,6-dihydro-2H-[1,4]oxazin-3-yl)-5-fluoro-pyridin-2-yl]amide]		
280	410	C[C@@]1(c2cc(NC(=O)c3ncc(OC(F)F)cc3Cl)ncc2F)CO[C@@](C)(C(F)(F)F)C(N)=N1 [Example 36, 3-Chloro-5-difluoromethoxy-pyridine-2-carboxylic acid [4-((3R,6R)-5-amino-3,6-dimethyl-6-trifluoromethyl-3,6-dihydro-2H-[1,4]oxazin-3-yl)-5-fluoro-pyridin-2-yl]-amide]		
160	33	Cc1cc(C#N)cnc1C(=O)Nc1ccc(F)c([C@]2(C(F)F)COCC(N)=N2)n1 [Example 38, 5-Cyano-3-methyl-pyridine-2-carboxylic acid [6-((R)-5-amino-3-difluoromethyl-3,6-dihydro-2H-[1,4]oxazin-3-yl)-5-fluoro-pyridin-2-yl]-amide]		
6500	1500	Cc1cc(C#N)cnc1C(=O)Nc1ccc(F)c([C@@]2(C(F)F)COCC(N)=N2)n1 [Example 39, 5-Cyano-3-methyl-pyridine-2-carboxylic acid [6-((S)-5-amino-3-difluoromethyl-3,6-dihydro-2H-[1,4]oxazin-3-yl)-5-fluoro-pyridin-2-yl]-amide]		
170	42	N#Cc1cnc(C(=O)Nc2ccc(F)c([C@]3(C(F)F)COCC(N)=N3)n2)c(Cl)c1 [Example 40, 3-Chloro-5-cyano-pyridine-2-carboxylic acid [6-((R)-5-amino-3-difluoromethyl-3,6-dihydro-2H-[1,4]oxazin-3-yl)-5-fluoro-pyridin-2-yl]-amide]		
5	10	C[C@@]1(c2nc(NC(=O)c3nn(C(F)F)cc3Cl)ccc2F)CO[C@@](C)(C(F)(F)F)C(N)=N1 [Example 46, 4-Chloro-1-difluoromethyl-1H-pyrazole-3-carboxylic acid [6-((3R,6R)-5-amino-3,6-dimethyl-6-trifluoromethyl-3,6-dihydro-2H-[1,4]oxazin-3-yl)-5-fluoro-pyridin-2-yl]-amide]		
